Measured values as given in patent publication US8673909B2, “Indole compounds and methods for treating visceral pain” (NeurAxon, Inc., priority 2007, dated 2014).
Entries after “also recorded” stand apart in the source; their conditions may differ.

Experiments:
[1] = test system: rats with L5/L6 spinal nerve ligation; assay: Chung spinal nerve ligation (SNL) model of neuropathic-like pain; format: in vivo; conditions: rat, 30 mg/kg i.p.
Description: (a) Chung Model of Injury-induced Neuropathic-like Pain: The experimental designs for the Chung Spinal Nerve Ligation SNL Model assay for neuropathic pain are depicted in the Figure below. Nerve ligation injury was performed according to the method described by Kim and Chung (Kim and Chung, Pain 50:355-363, 1992). This technique produces signs of neuropathic dysesthesias, including tactile allodynia, thermal hyperalgesia, and guarding of the affected paw. Rats were anesthetized with halothane, and the vertebrae over the L4 to S2 region were exposed. The L5 and L6 spinal nerves were exposed, carefully isolated, and tightly ligated with 4-0 silk suture distal to the DRG. After ensuring homeostatic stability, the wounds were sutured, and the animals allowed to recover in individual cages. Sham-operated rats were prepared in an identical fashion except that the L5/L6 spinal nerves were not ligated. […] After a period of recovery following the surgical intervention, rats show enhanced sensitivity to painful and normally non-painful stimuli.

[2] = target: T1, Nitric oxide synthase (endothelial, human recombinant) eNOS (Homo sapiens, UniProt P29474); assay: eNOS (human) enzyme assay, [3H]-L-arginine to L-citrulline; format: biochemical; conditions: Table 10, human eNOS; read-out: eNOSh
T1 construct: purchased Axxora LLC ALX-201-070
T1 sequence (P29474 whole entry): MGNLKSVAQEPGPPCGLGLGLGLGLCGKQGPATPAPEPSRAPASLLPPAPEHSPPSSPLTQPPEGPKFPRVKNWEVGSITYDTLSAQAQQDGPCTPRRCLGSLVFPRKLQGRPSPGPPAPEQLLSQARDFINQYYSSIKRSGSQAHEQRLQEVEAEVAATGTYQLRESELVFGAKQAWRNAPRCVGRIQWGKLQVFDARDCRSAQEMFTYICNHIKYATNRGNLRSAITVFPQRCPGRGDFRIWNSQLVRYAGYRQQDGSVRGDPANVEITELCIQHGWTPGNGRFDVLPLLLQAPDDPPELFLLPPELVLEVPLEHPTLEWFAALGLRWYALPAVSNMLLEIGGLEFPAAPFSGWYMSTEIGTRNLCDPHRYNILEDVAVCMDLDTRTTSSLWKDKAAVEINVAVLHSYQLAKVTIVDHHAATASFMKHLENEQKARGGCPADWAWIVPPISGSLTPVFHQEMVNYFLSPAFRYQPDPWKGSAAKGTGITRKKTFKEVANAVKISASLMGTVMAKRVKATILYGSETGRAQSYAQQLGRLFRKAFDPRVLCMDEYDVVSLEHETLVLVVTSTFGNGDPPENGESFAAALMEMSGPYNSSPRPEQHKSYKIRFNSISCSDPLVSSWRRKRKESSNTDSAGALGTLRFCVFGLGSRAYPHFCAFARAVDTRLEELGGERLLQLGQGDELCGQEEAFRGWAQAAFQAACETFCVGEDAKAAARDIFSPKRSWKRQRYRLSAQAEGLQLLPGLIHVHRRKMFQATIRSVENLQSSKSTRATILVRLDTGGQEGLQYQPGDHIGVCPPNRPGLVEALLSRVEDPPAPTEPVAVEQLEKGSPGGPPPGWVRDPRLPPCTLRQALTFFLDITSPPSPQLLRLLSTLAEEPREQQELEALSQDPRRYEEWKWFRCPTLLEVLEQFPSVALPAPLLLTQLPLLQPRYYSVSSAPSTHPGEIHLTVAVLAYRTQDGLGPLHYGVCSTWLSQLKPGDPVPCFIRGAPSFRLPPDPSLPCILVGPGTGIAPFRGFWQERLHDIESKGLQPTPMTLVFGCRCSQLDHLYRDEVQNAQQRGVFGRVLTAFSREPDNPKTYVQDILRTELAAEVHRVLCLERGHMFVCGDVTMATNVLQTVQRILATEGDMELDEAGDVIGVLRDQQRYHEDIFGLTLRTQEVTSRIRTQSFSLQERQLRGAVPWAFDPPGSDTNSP
Description: Human nNOS and eNOS Protocol:
Procedure for Human nNOS and eNOS
Primary stock solutions of test compounds at a concentration of 6 mM are prepared. The primary stock solutions of each test compound are prepared freshly in distilled water on the day of study. […] Concentration range of test compound utilized for nNOS are 0.001 to 300 μM and for eNOS are 0.003 to 1000 μM. The vehicle of the test compound or inhibitor is used as blank control. […] The IC50 concentration of L-NAME was run in parallel as a control.
All incubations are performed in duplicate:
Prepare the reaction mixture on ice by adding the following components with a micropipette to a polypropylene microcentrifuge tube:
Start the reaction by addition of the substrate (in 5 µL containing 1 μCi of [^3H]-L-Arginine+2.5 μM of unlabeled L-Arginine) to the reaction mixture. Total reaction volume is 60 μL.
Mix using a vortex mixer and incubate the above reaction mixture at 37° C. in an incubator for 30 minutes.
Add 400 μL of ice-cold Stop Buffer at the end of the incubation period to stop the reaction. (The EDTA in the Stop Buffer chelates all of the available calcium.)
Mix using a vortex mixer and transfer the reaction samples to spin cups and centrifuge using a microcentrifuge, at 13,000 rpm for 30 sec. at room temperature.
Remove the spin cups from the holder and transfer 450 μL of eluate (containing the unbound L-citrulline) to scintillation vials. Add 3 mL of scintillation fluid and quantify the radioactivity in a liquid scintillation counter.
Calculation of IC50 Values:
Data is analyzed using a Sigmoidal dose-response (variable slope) curve to determine the IC50 value of the test compound. Y=Bottom+(Top−Bottom)/(1+10^((Log IC50−X)*Hill Slope))

[3] = Human liver microsome in vitro metabolic stability assay; format: in vitro ADME; conditions: for Peak Area Ratio 0 min / Peak Area Ratio 15 min / Peak Area Ratio 30 min / Peak Area Ratio 60 min: human liver microsomes
Description: The compounds (10 μM) were incubated with pooled human liver microsomes in the presence and absence of the co-factor, β-Nicotinamide adenine dinucleotide phosphate (NADP^+), required for oxidative metabolism by the Cytochrome P-450 (CYP) and flavin containing monooxygenase (FMO) enzymes. A tandem liquid chromatography mass spectrometry (LC-MS/MS) method was developed and/or qualified for each compound for measuring relative stability of 6a, 6b, and 18 in the terminated reaction mixtures. The relative disappearance of the test compounds following 15, 30, and 60 min of incubation with liver microsomes, NADP^+, and an NADPH-regenerating system was determined in duplicate samples. 6a, 6b, and 18 stability following 0 and 60 min of incubation with liver microsomes in the absence of NADP^+ was also determined.
Samples for each test compound generated from the assay were analyzed as one batch by the qualified LC-MS/MS method. The sample batch consisted of the following: initial system check standards (three replicates), the assay samples (in duplicate) and the final system check standards (three replicates). A batch was considered acceptable if the system check injection acceptance criteria described above was met.
The study was conducted with cryopreserved human liver microsomes, pooled from 15 donors (mixed pool of male and female donors). Pooled donor microsomes were used in order to represent an “average” metabolic activity. The microsomes have been characterized by the supplier for Phase I (CYP1A2, CYP2A6, CYP2B6, CYP2C8, CYP2C9, CYP2C19, CYP2D6, CYP2E1, CYP3A4, CYP4A11 and FMO) and Phase II (UGT1A1, UGT1A4 and UGT1A9) enzymatic activity.
1. The assay was performed with 0.5 mg/mL human liver microsomes in 50 mM potassium phosphate buffer, pH 7.4 (PPB), and in the presence of an NADPH regenerating system (1.3 mM NADP^+, 3.3 mM glucose-6-phosphate, 0.4 U/mL glucose-6-phosphate dehydrogenase) and 3.3 mM MgCl2. All incubations were performed in duplicate. One concentration of test compound was tested (10 μM). 2. A stock solution of microsomes (20 mg/mL) was thawed in a 37° C. water bath on the day of the assay and then immediately placed on ice. The microsomes were then diluted with an appropriate volume of PPB, such that the final protein concentration in the assay was 0.5 mg/mL, and the final PPB concentration was 50 mM. 3. An appropriate aliquot of the 1 mM stock solution of the test compounds (in water) was added to the diluted microsomes, and then the mixture was warmed to 37° C. for 5 min in an incubator. […] These samples represent the time zero samples. 4. An aliquot (375 μL) of the pre-warmed liver microsomes and test compound mixture was dispensed into a well of a 24-well plate. A 125 μL aliquot of pre-warmed (37° C. for 5 min) 4-fold concentrated NADPH regenerating system solution was then added to start the reaction. Reaction mixtures (0.5 mL) were incubated in a shaking incubator (150 rpm) at 37° C. 5. One hundred μL of the reaction mixture was sampled following 15, 30, and 60 min of incubation. Each sample with test compound was immediately added to a chilled labeled centrifuge tube containing 100 μL of ice cold methanol to terminate the reaction. 6. All samples were mixed by vortex and then centrifuged (15,000×g for 10 min at 4° C.) to pellet the protein. An aliquot of the supernatant from each sample was then transferred to a clean, labeled centrifuge tube and stored at −70° C. until bioanalysis. 7. […] 8. As a control, test compound was incubated with microsomes in the absence of NADP^+. One hundred μL of the reaction mixture was sampled for control samples following 0 and 60 min of incubation as detailed above. 9. Data sheets with the date of the experiment, the Study No., the compound IDs, the sampling times, a plate map and any deviations to the protocol were recorded.
The mean of the test compound to the internal standard peak area ratios were calculated for the zero time sample.

Compound | reversal of tactile hyperthesia [1] | reversal of thermal hyperalgesia (antihyperalgesic effect) [1] | IC50 [2] [µM] | Peak Area Ratio 0 min ([3]; +NADP+, 10 μM) | Peak Area Ratio 15 min ([3]; +NADP+, 10 μM) | Peak Area Ratio 30 min ([3]; +NADP+, 10 μM) | Peak Area Ratio 60 min ([3]; +NADP+, 10 μM) | half-life at 10 μM ([3]; both sexes, pooled human liver microsomes, pH 7.4, human liver microsomes, with NADPH regenerating system, read-out: estimated half-life for disappearance from the microsomal reaction mixture) [h] | Peak Area Ratio 0 min ([3]; −NADP+, 10 μM) | Peak Area Ratio 60 min ([3]; −NADP+, 10 μM) | metabolic stability in human liver microsomes ([3]; 60 min incubation, 10 μM)
CN1CCC(c2c[nH]c3ccc(NC(=N)c4cccs4)cc23)C1 (single isomer, unassigned) [Compound 6a, N-(3-(1-Methylpyrrolidin-3-yl)-1H-indol-5-yl)thiophene-2-carboximidamide] | not | only weakly | 45.5 | 25.8 | 25.8 | 23.7 | 19.4 | 2.2 | 22.0 | 20.2 | –
CN1CCC(c2c[nH]c3ccc(NC(=N)c4cccs4)cc23)C1 (single isomer, unassigned) [Compound 6b, N-(3-(1-Methylpyrrolidin-3-yl)-1H-indol-5-yl)thiophene-2-carboximidamide] | reversal of tactile hyperthesia | reversal of thermal hyperalgesia; also recorded: clear antihyperalgesic effect | 20.6 | 20.6 | 20.5 | 21.4 | 20.5 | – | 20.2 | 20.6 | metabolically stable over 60 min of incubation
